Assay results as given in the supplement of paper PMC11424490.

Experiments:
Assay in all cases: combination cScore with sotorasib (Bliss gap around IC50) (%PoC); higher = stronger additive effect
SW837 = tested on: SW837
Summary of the method: (§1)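 After 24 h in 384-well plates (500 or 800 cells per well), NCI-H2122, NCI-H358 and SW837 cells received concentration matrices and grew for 72 h, except SW837, which grew for 144 h. CellTiter-Glo readings were scaled to vehicle wells and fitted with four-parameter curves. Each score is the averaged Bliss-independence difference (expected minus measured viability) over a region around both monotherapy IC50s, or at top concentrations when no IC50 was reached.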

NCI-H358 = tested on: NCI-H358
Summary of the method: as §1

NCI-H2122 = tested on: NCI-H2122
Summary of the method: as §1

Structure (SMILES)	combination cScore with sotorasib (SW837)	combination cScore with sotorasib (NCI-H358)	combination cScore with sotorasib (NCI-H2122)
CCc1nc(N)nc(N)c1-c1ccc(Cl)cc1 [Pyrimethamine] + C=CC(=O)N1CCN(c2nc(=O)n(-c3c(C)ccnc3C(C)C)c3nc(-c4c(O)cccc4F)c(F)cc23)[C@@H](C)C1 [sotorasib]	-4.42	-6.53	5.47
Cc1c(CN2CCC(Nc3ncnc4sc(CC(F)(F)F)cc34)CC2)ccc2[nH]c(C#N)cc12 [MI-463] + C=CC(=O)N1CCN(c2nc(=O)n(-c3c(C)ccnc3C(C)C)c3nc(-c4c(O)cccc4F)c(F)cc23)[C@@H](C)C1 [sotorasib]	12.3	2.97	10.2
COc1cc2nc(C)nc(N[C@H](C)c3cc(N)cc(C(F)(F)F)c3)c2cc1O[C@H]1CCOC1 [BI-3406 (SOSi)] + C=CC(=O)N1CCN(c2nc(=O)n(-c3c(C)ccnc3C(C)C)c3nc(-c4c(O)cccc4F)c(F)cc23)[C@@H](C)C1 [sotorasib]	9.14	13	28.9
C[C@@H]1CN(CC(=O)Nc2ccc3c(c2)Cc2cccc(-c4cc(=O)cc(N5CCOCC5)o4)c2S3)C[C@H](C)O1 + C=CC(=O)N1CCN(c2nc(=O)n(-c3c(C)ccnc3C(C)C)c3nc(-c4c(O)cccc4F)c(F)cc23)[C@@H](C)C1 [sotorasib]	9.38	5.09	17.1
O=P1(N(CCCl)CCCl)NCCCO1 (configuration not stated) [Cyclophosphamide] + C=CC(=O)N1CCN(c2nc(=O)n(-c3c(C)ccnc3C(C)C)c3nc(-c4c(O)cccc4F)c(F)cc23)[C@@H](C)C1 [sotorasib]	-10.5	4.33	-0.02
C=CC(=O)Nc1cc(Nc2nccc(-c3cn(C)c4ccccc34)n2)c(OC)cc1N(C)CCN(C)C [Osimertinib] + C=CC(=O)N1CCN(c2nc(=O)n(-c3c(C)ccnc3C(C)C)c3nc(-c4c(O)cccc4F)c(F)cc23)[C@@H](C)C1 [sotorasib]	15.9	11.6	16.7
COc1cc(Nc2c(C#N)cnc3cc(OCCCN4CCN(C)CC4)c(OC)cc23)c(Cl)cc1Cl [Bosutinib] + C=CC(=O)N1CCN(c2nc(=O)n(-c3c(C)ccnc3C(C)C)c3nc(-c4c(O)cccc4F)c(F)cc23)[C@@H](C)C1 [sotorasib]	11.2	5.71	8.9
O=C(/C=C/c1cccc(S(=O)(=O)Nc2ccccc2)c1)NO [Belinostat] + C=CC(=O)N1CCN(c2nc(=O)n(-c3c(C)ccnc3C(C)C)c3nc(-c4c(O)cccc4F)c(F)cc23)[C@@H](C)C1 [sotorasib]	9.09	-2.69	10.8
CS(=O)(=O)CCNCc1ccc(-c2ccc3ncnc(Nc4ccc(OCc5cccc(F)c5)c(Cl)c4)c3c2)o1 [Lapatinib] + C=CC(=O)N1CCN(c2nc(=O)n(-c3c(C)ccnc3C(C)C)c3nc(-c4c(O)cccc4F)c(F)cc23)[C@@H](C)C1 [sotorasib]	15.4	12.8	28.9
COc1cc2ncnc(Nc3ccc(F)c(Cl)c3)c2cc1OCCCN1CCOCC1 [Gefitinib] + C=CC(=O)N1CCN(c2nc(=O)n(-c3c(C)ccnc3C(C)C)c3nc(-c4c(O)cccc4F)c(F)cc23)[C@@H](C)C1 [sotorasib]	23.2	8.62	26.4
O=c1cc(-c2cccc3c2Sc2ccccc2S3)oc(N2CCOCC2)c1 + C=CC(=O)N1CCN(c2nc(=O)n(-c3c(C)ccnc3C(C)C)c3nc(-c4c(O)cccc4F)c(F)cc23)[C@@H](C)C1 [sotorasib]	10.6	12.9	11.2
CCNC(=O)C[C@@H]1N=C(c2ccc(Cl)cc2)c2cc(OC)ccc2-n2c(C)nnc21 [iBET-762] + C=CC(=O)N1CCN(c2nc(=O)n(-c3c(C)ccnc3C(C)C)c3nc(-c4c(O)cccc4F)c(F)cc23)[C@@H](C)C1 [sotorasib]	7.05	5.17	22.3
CNS(=O)(=O)Nc1nccc(Cc2c(C)c3ccc(Oc4ncccn4)cc3oc2=O)c1F + C=CC(=O)N1CCN(c2nc(=O)n(-c3c(C)ccnc3C(C)C)c3nc(-c4c(O)cccc4F)c(F)cc23)[C@@H](C)C1 [sotorasib]	5.63	4.31	8.14
C#Cc1cccc(Nc2ncnc3cc(OCCOC)c(OCCOC)cc23)c1 [Erlotinib] + C=CC(=O)N1CCN(c2nc(=O)n(-c3c(C)ccnc3C(C)C)c3nc(-c4c(O)cccc4F)c(F)cc23)[C@@H](C)C1 [sotorasib]	23	10.2	27.4
COc1cc(N2CCC(N3CCN(C)CC3)CC2)ccc1Nc1ncc(Cl)c(Nc2ccccc2S(=O)(=O)C(C)C)n1 [NVP-TAE684] + C=CC(=O)N1CCN(c2nc(=O)n(-c3c(C)ccnc3C(C)C)c3nc(-c4c(O)cccc4F)c(F)cc23)[C@@H](C)C1 [sotorasib]	22.3	5.9	14.6
O=C(/C=C/N1C[C@H]2C[C@@H]1CN2c1ccccn1)c1ccccc1O [PFI-3] + C=CC(=O)N1CCN(c2nc(=O)n(-c3c(C)ccnc3C(C)C)c3nc(-c4c(O)cccc4F)c(F)cc23)[C@@H](C)C1 [sotorasib]	-2.6	0.77	15.8
Cc1nc(Nc2ncc(C(=O)Nc3c(C)cccc3Cl)s2)cc(N2CCN(CCO)CC2)n1 [Dasatinib] + C=CC(=O)N1CCN(c2nc(=O)n(-c3c(C)ccnc3C(C)C)c3nc(-c4c(O)cccc4F)c(F)cc23)[C@@H](C)C1 [sotorasib]	17.9	9.3	30.8
O=C(O)CNC(=O)c1c(O)c2ccccc2n(Cc2ccccc2)c1=O [IOX2] + C=CC(=O)N1CCN(c2nc(=O)n(-c3c(C)ccnc3C(C)C)c3nc(-c4c(O)cccc4F)c(F)cc23)[C@@H](C)C1 [sotorasib]	17.9	0.66	21.3
CC1(C)CCC(c2ccc(Cl)cc2)=C(CN2CCN(c3ccc(C(=O)NS(=O)(=O)c4ccc(N[C@H](CCN5CCOCC5)CSc5ccccc5)c(S(=O)(=O)C(F)(F)F)c4)cc3)CC2)C1 [ABT-263] + C=CC(=O)N1CCN(c2nc(=O)n(-c3c(C)ccnc3C(C)C)c3nc(-c4c(O)cccc4F)c(F)cc23)[C@@H](C)C1 [sotorasib]	20.7	2.08	15.1
O=C1c2c(O)ccc(O)c2C(=O)c2c(NCCNCCO)ccc(NCCNCCO)c21 [Mitoxantrone] + C=CC(=O)N1CCN(c2nc(=O)n(-c3c(C)ccnc3C(C)C)c3nc(-c4c(O)cccc4F)c(F)cc23)[C@@H](C)C1 [sotorasib]	7.33	1.3	11.3
CCS(=O)(=O)Nc1ccc2c(c1)/C(=C(/Nc1ccc(CN3CCCCC3)cc1)c1ccccc1)C(=O)N2 [Hesperadin] + C=CC(=O)N1CCN(c2nc(=O)n(-c3c(C)ccnc3C(C)C)c3nc(-c4c(O)cccc4F)c(F)cc23)[C@@H](C)C1 [sotorasib]	5.4	4.25	12.3
NC1(c2ccc(-c3nc4ccn5c(=O)[nH]nc5c4cc3-c3ccccc3)cc2)CCC1 [MK-2206] + C=CC(=O)N1CCN(c2nc(=O)n(-c3c(C)ccnc3C(C)C)c3nc(-c4c(O)cccc4F)c(F)cc23)[C@@H](C)C1 [sotorasib]	18	1.28	15.5
O=C(c1c(F)ccc(NS(=O)(=O)N2CC[C@@H](F)C2)c1F)c1c[nH]c2ncc(-c3cnc(C4CC4)nc3)cc12 [PLX8394] + C=CC(=O)N1CCN(c2nc(=O)n(-c3c(C)ccnc3C(C)C)c3nc(-c4c(O)cccc4F)c(F)cc23)[C@@H](C)C1 [sotorasib]	3.79	6.09	24.2
CC1(N)CCN(c2cnc(-c3cccc(Cl)c3Cl)c(N)n2)CC1 [SHP099] + C=CC(=O)N1CCN(c2nc(=O)n(-c3c(C)ccnc3C(C)C)c3nc(-c4c(O)cccc4F)c(F)cc23)[C@@H](C)C1 [sotorasib]	9.98	7.84	19.1
